Experimental data reported in patent US12685777B2, “Compositions, systems, and methods for modulating a target gene” (The Board of Trustees of the Leland Stanford Junior …, priority 2022, dated 2026).
pIC50: −log10 of the molar value. “Also recorded” adds a separate entry of the source.

How the values were obtained:
NCI-H2196 = assay: Dose response on viability of small cell lung cancer line, resazurin assay; format: cell-based; settings: Homo sapiens; NCI-H2196, 72 h treatment
Method: (§1) IC50 of JWZ-7-7, BI-3812, JQ1, and combinations were calculated based on a dose response curve on three small cell lung cancer lines (FIG. 5). The dose response curve on viability was performed in technical replicates and biological triplicate after treating cells for 72 hours across a broad range of concentrations via serial dilutions. Viable cells were measured after treatment via a resazurin assay. The signal for viable assays was normalized to the DMSO treated negative control. A four-parameter non-linear fit was performed to fit a curve to calculate the IC50 for each of the cell lines. The table below describes the calculated IC50 across JWZ-7-7, JQ1, BI-3812 and combination of JQ1 and BI-3812 after 72 h treatment in technical replicates and biological triplicates.

DMS-79 = assay: as above; format: cell-based; settings: Homo sapiens; DMS-79, 72 h treatment
Method: as §1

NCI-H1105 = assay: as above; format: cell-based; settings: NCI-H1105, 72 h treatment; read-out: IC50
Method: as §1

DLBCL cell lines = assay: Chemical rescue: competitive titration of JQ1 or Bl3812 against the TCIP; format: cell-based; settings: titrated against constant JWZ-7-7 / TCIP1
[1] = test system: MYC, FOXO3, p21, BCL6, BRD4 protein levels in KARPAS422 and SUDHL5; assay: Western blots of target proteins in DLBCL cells; format: cell-based, human; settings: titrated against constant 10 nM TCIP1, 8 hours
Method: Cells were plated at 1 M/mL and treated with drug at indicated timepoints and doses. 2 M Cells were harvested on ice in RIPA buffer (50 mM Tris-HCl pH 8, 150 mM NaCl, 1% NP-40, 0.1% DOC, 1% SDS, protease inhibitor cocktail (homemade), 1 mM DTT) and 1:200 benzonase (Sigma #E1014) was added and incubated for 20 minutes. After 10 minute centrifugation at 14,000 g and 4° C., the supernatant was collected and protein concentration was measured by Bradford.
Because a high percentage of the TCIP1-treated cells contain fragmented DNA by TUNEL assay at 24 hours (FIG. 31, Panel E), many of the “reduced genes” could reflect DNA fragmentation as part of the apoptotic process and digestion to mononucleosomes. Among the group of genes whose expression was most reduced were MYC and its targets (FIGS. 33B, 36C). The top 100 most TCIP1-reduced genes were examined using ChIP-seq data of human transcription factors in blood cancer cell lines, and found the promoters of TCIP1-inhibited genes highly enriched for MYC binding in multiple datasets (FIG. 33, Panel C). This is significant since many DLBCLs are considered to be MYC-dependent.
Signaling via NF-kB is known to be repressed by BCL6.

[2] = biological target: T1, bromodomain 1 of BRD4 and BTB domain of BCL6 (Homo sapiens, UniProt O60885+P41182, C67R/C84N/C8Q); assay: TR-FRET assay of ternary complex formation; format: binding; settings: 1 hr at room temperature, 520 nm/490 nm ratio
T1 construct: contains amino acids 5-129 with three mutations, C8Q, C67R, C84N
Method: Reaction was incubated for 1 hr at room temperature, and subsequently the fluorescence at 520 nm and 490 nm was measured. The 520 nm/490 nm ratio is plotted respective to DMSO control. The two lower curves are performed by addition of Neg1 and Neg2 instead of JWZ-7-7. […] The structure of JWZ-7-7 is provided in FIG. 2 and the structures of Neg1 and Neg2 are provided below:
Each reaction contained 100 nM BRD4^BD1, 100 nM BCL6BTB-Avi-Biot, 20 nM Streptavidin-FITC (Thermo #SA1001), and 1:400 anti-6×His terbium antibody (PerkinElmer #61H12TLF) in 10 μL of buffer containing 20 mM HEPES, 150 mM NaCl, 0.1% BSA, 0.1% NP-40, and 1 mM TCEP in a 384-well plate. Protein was incubated with drug digitally dispensed (Tecan D300e) for 1 hour in the dark at room temperature before excitation at 337 nm and measurement of emission at 520 nm (FITC) and 490 nm (terbium) with a PHERAstar FS plate reader (BMG Labtech). The ratio of signal at 520 nm to 490 nm was calculated and normalized to DMSO-treated conditions, and plotted.

Row | SMILES | Ternary complex formation (TR-FRET) [2] | further results
1 | CNC(=O)COc1cc2cc(Nc3nc(N4CCC(C(=O)N(C)C)CC4)ncc3Cl)cc(OC)c2n(C)c1=O [BI-3812] |  | pIC50 (NCI-H2196): 5.46; pIC50 (DMS-79): 5.21; pIC50 (NCI-H1105): 5.37
2 | CNC(=O)COc1cc2cc(Nc3nc(N4CCC(C(=O)N(C)C)CC4)ncc3Cl)cc(OC)c2n(C)c1=O [Bl3812] |  | Rescue of TCIP-induced cell death (DLBCL cell lines): rescue cell death; also recorded: prevented death by TCIP1; Reversal of TCIP1-induced protein changes [1]: reversed p21 upregulation, FOXO3 upregulation, and MYC downregulation
3 | CNC(=O)COc1cc2cc(Nc3nc(N4CCC(C(=O)NCCCCCCNC(=O)C[C@@H]5N=C(c6ccc(Cl)cc6)c6c(sc(C)c6C)-n6c(C)nnc65)CC4)ncc3Cl)cc(OC)c2n(C)c1=O [JWZ-7-6, (S)-1-(5-chloro-4-((8-methoxy-1-methyl-3-(2-(methylamino)-2-oxoethoxy)-2-oxo-1,2-dihydroquinolin-6-yl)amino)pyrimidin-2-yl)-N-(6-(2-(4-(4-chlorophenyl)-2,3,9-trimethyl-6H-thieno[3,2-f][1,2,4]triazolo[4,3-a][1,4]diazepin-6-yl)acetamido)hexyl)piperidine-4-carboxamide] | showed ternary complex formation | 
4 | CNC(=O)COc1cc2cc(Nc3nc(N4CCC(C(=O)NCCN5CCN(CCNC(=O)C[C@@H]6N=C(c7ccc(Cl)cc7)c7c(sc(C)c7C)-n7c(C)nnc76)CC5)CC4)ncc3Cl)cc(OC)c2n(C)c1=O [JWZ-7-13, (S)-1-(5-chloro-4-((8-methoxy-1-methyl-3-(2-(methylamino)-2-oxoethoxy)-2-oxo-1,2-dihydroquinolin-6-yl)amino)pyrimidin-2-yl)-N-(2-(4-(2-(2-(4-(4-chlorophenyl)-2,3,9-trimethyl-6H-thieno[3,2-f][1,2,4]triazolo[4,3-a][1,4]diazepin-6-yl)acetamido)ethyl)piperazin-1-yl)ethyl)piperidine-4-carboxamide] | showed ternary complex formation | 
5 | CNC(=O)COc1cc2cc(Nc3nc(N4CCC(C(=O)NCCCN5CCN(CCCNC(=O)C[C@@H]6N=C(c7ccc(Cl)cc7)c7c(sc(C)c7C)-n7c(C)nnc76)CC5)CC4)ncc3Cl)cc(OC)c2n(C)c1=O [JWZ-7-14, (S)-1-(5-chloro-4-((8-methoxy-1-methyl-3-(2-(methylamino)-2-oxoethoxy)-2-oxo-1,2-dihydroquinolin-6-yl)amino)pyrimidin-2-yl)-N-(3-(4-(3-(2-(4-(4-chlorophenyl)-2,3,9-trimethyl-6H-thieno[3,2-f][1,2,4]triazolo[4,3-a][1,4]diazepin-6-yl)acetamido)propyl)piperazin-1-yl)propyl)piperidine-4-carboxamide] | showed ternary complex formation | 
6 | CNC(=O)COc1cc2cc(Nc3nc(N4CCC(C(=O)NCCCCCCCCCNC(=O)C[C@@H]5N=C(c6ccc(Cl)cc6)c6c(sc(C)c6C)-n6c(C)nnc65)CC4)ncc3Cl)cc(OC)c2n(C)c1=O [JWZ-7-15, (S)-1-(5-chloro-4-((8-methoxy-1-methyl-3-(2-(methylamino)-2-oxoethoxy)-2-oxo-1,2-dihydroquinolin-6-yl)amino)pyrimidin-2-yl)-N-(9-(2-(4-(4-chlorophenyl)-2,3,9-trimethyl-6H-thieno[3,2-f][1,2,4]triazolo[4,3-a][1,4]diazepin-6-yl)acetamido)nonyl)piperidine-4-carboxamide] | showed ternary complex formation | 
7 | CNC(=O)COc1cc2cc(Nc3nc(N4CCC(C(=O)NCCCCCCCCCCNC(=O)C[C@@H]5N=C(c6ccc(Cl)cc6)c6c(sc(C)c6C)-n6c(C)nnc65)CC4)ncc3Cl)cc(OC)c2n(C)c1=O [JWZ-7-20, (S)-1-(5-chloro-4-((8-methoxy-1-methyl-3-(2-(methylamino)-2-oxoethoxy)-2-oxo-1,2-dihydroquinolin-6-yl)amino)pyrimidin-2-yl)-N-(10-(2-(4-(4-chlorophenyl)-2,3,9-trimethyl-6H-thieno[3,2-f][1,2,4]triazolo[4,3-a][1,4]diazepin-6-yl)acetamido)decyl)piperidine-4-carboxamide] | showed ternary complex formation | 

Further lines, with some results ahead:

Row | Ternary complex formation (TR-FRET) [2] | SMILES | further results
8 | showed ternary complex formation | CNC(=O)COc1cc2cc(Nc3nc(N4CCN(CCCCCCCCCCCNC(=O)C[C@@H]5N=C(c6ccc(Cl)cc6)c6c(sc(C)c6C)-n6c(C)nnc65)CC4)ncc3Cl)cc(OC)c2n(C)c1=O [JWZ-7-22, (S)-2-((6-((5-chloro-2-(4-(11-(2-(4-(4-chlorophenyl)-2,3,9-trimethyl-6H-thieno[3,2-f][1,2,4]triazolo[4,3-a][1,4]diazepin-6-yl)acetamido)undecyl)piperazin-1-yl)pyrimidin-4-yl)amino)-8-methoxy-1-methyl-2-oxo-1,2-dihydroquinolin-3-yl)oxy)-N-methylacetamide] | 
9 | showed ternary complex formation | CNC(=O)COc1cc2cc(Nc3nc(N4CCN(CCCCCCCCNC(=O)C[C@@H]5N=C(c6ccc(Cl)cc6)c6c(sc(C)c6C)-n6c(C)nnc65)CC4)ncc3Cl)cc(OC)c2n(C)c1=O [JWZ-7-23, (S)-2-((6-((5-chloro-2-(4-(8-(2-(4-(4-chlorophenyl)-2,3,9-trimethyl-6H-thieno[3,2-f][1,2,4]triazolo[4,3-a][1,4]diazepin-6-yl)acetamido)octyl)piperazin-1-yl)pyrimidin-4-yl)amino)-8-methoxy-1-methyl-2-oxo-1,2-dihydroquinolin-3-yl)oxy)-N-methylacetamide] | 
10 | showed ternary complex formation | CNC(=O)COc1cc2cc(Nc3nc(N4CCC(C(=O)NCCCOCCCNC(=O)C[C@@H]5N=C(c6ccc(Cl)cc6)c6c(sc(C)c6C)-n6c(C)nnc65)CC4)ncc3Cl)cc(OC)c2n(C)c1=O [JWZ-7-97, (S)-1-(5-chloro-4-((8-methoxy-1-methyl-3-(2-(methylamino)-2-oxoethoxy)-2-oxo-1,2-dihydroquinolin-6-yl)amino)pyrimidin-2-yl)-N-(3-(3-(2-(4-(4-chlorophenyl)-2,3,9-trimethyl-6H-thieno[3,2-f][1,2,4]triazolo[4,3-a][1,4]diazepin-6-yl)acetamido)propoxy)propyl)piperidine-4-carboxamide] | 
11 | showed ternary complex formation | CNC(=O)COc1cc2cc(Nc3nc(N4CCC(C(=O)N5CCC6(CC5)CN(CCNC(=O)C[C@@H]5N=C(c7ccc(Cl)cc7)c7c(sc(C)c7C)-n7c(C)nnc75)C6)CC4)ncc3Cl)cc(OC)c2n(C)c1=O [JWZ-7-98, (S)-2-((6-((5-chloro-2-(4-(2-(2-(2-(4-(4-chlorophenyl)-2,3,9-trimethyl-6H-thieno[3,2-f][1,2,4]triazolo[4,3-a][1,4]diazepin-6-yl)acetamido)ethyl)-2,7-diazaspiro[3.5]nonane-7-carbonyl)piperidin-1-yl)pyrimidin-4-yl)amino)-8-methoxy-1-methyl-2-oxo-1,2-dihydroquinolin-3-yl)oxy)-N-methylacetamide] | 
12 | showed ternary complex formation | CNC(=O)COc1cc2cc(Nc3nc(N4CCC(C(=O)NCCCN(C)CCCNC(=O)C[C@@H]5N=C(c6ccc(Cl)cc6)c6c(sc(C)c6C)-n6c(C)nnc65)CC4)ncc3Cl)cc(OC)c2n(C)c1=O [JWZ-7-100, (S)-1-(5-chloro-4-((8-methoxy-1-methyl-3-(2-(methylamino)-2-oxoethoxy)-2-oxo-1,2-dihydroquinolin-6-yl)amino)pyrimidin-2-yl)-N-(3-((3-(2-(4-(4-chlorophenyl)-2,3,9-trimethyl-6H-thieno[3,2-f][1,2,4]triazolo[4,3-a][1,4]diazepin-6-yl)acetamido)propyl)(methyl)amino)propyl)piperidine-4-carboxamide] | 
